Laboratory results taken from patent publication US10232047B2, “Topical oil composition for the treatment of fungal infections” (VYOME BIOSCIENCES PVT LTD., priority 2011, dated 2019).

Tests used:
[1] = system: Malassezia furfur (MTCC 1374); assay: MIC by agar dilution method in Leeming Notman Medium; format: cell-based; set-up: key: “+” indicates growth of fungus; “−” indicates no growth of fungus; settings: M. furfur
Description: The Minimum Inhibitory Concentration (MIC) is considered as an index for indicating Anti-fungal efficacy. Therefore lower the value of MIC of the composition, the better is its anti-fungal efficacy.
Method: The in vitro activities of some of the oil compositions containing piroctone olamine against Malassezia furfur (MTCC 1374) were determined by agar dilution methods (Jan Faergemann, et al Acta Derm Venereol, (2006), 86:312; Irith Wiegand, et al Nature Protocols (2008), 3:163) Appropriate dilutions of solubilized antifungal compositions were added to molten Leeming Notman Medium. Once the plates were set, M. furfur innoculum adjusted to appropriate cfu/ml was streaked on the agar plates and incubated for 6 days. […] The MIC is defined as as the lowest concentration of antifungal agents that inhibits visible growth of fungus.
Method: The in vitro activities of some of the oil compositions containing ketoconazole against Malassezia furfur (MTCC 1374) were determined by agar dilution methods. Appropriate dilutions of antifungal compositions were added to molten Leeming Notman Medium. Once the plates were set, M. furfur innoculum adjusted to appropriate cfu/ml was streaked on the agar plates and incubated for 6 days. […] The MIC is defined as the lowest tested dilution of antifungal active that yields no growth.
B) Study of MIC of Oil Compositions Devoid of C-11 or Greater Fatty Acids/Esters Containing Antifungal Agent Piroctone Olamine Against M. furfur Under in vitro Conditions.

M. obtusa = assay: MIC of oil compositions against M. obtusa; format: cell-based; set-up: key: “+” indicates growth of fungus; “−” indicates no growth of fungus
M. furfur (MTCC 1374) = assay: Lipid assimilation in vitro assay: growth of M. furfur on Sabouraud Dextrose agar supplemented with fatty acids/esters or oils; format: cell-based, Malassezia furfur; settings: up to 6 days
Source text: (§1) Malassezia species are lipophilic unipolar yeasts recognized as commensals of skin that may be pathogenic under certain conditions (Indian Journal of Medical Microbiology, (2004) 22 (3):179-181). To compare lipid requirements of the fungus most closely associated with dandruff/seborrheic dermatitis, the best studied Malassezia species is M. furfur. Lipid assimilation in vitro assay was designed to investigate lipid effect on growth of M. furfur (MTCC 1374).
Method: Briefly, Sabouraud Dextrose containing low-melt agar was melted, cooled to 38° C. Fatty acids/esters constituents eg, capric acid, caprylic acid, linoleic acid, oleic acid, lauric acid, palmitic acid, ethyl oleate, isopropyl myristate and oils containing fatty acid/esters eg, coconut oil, mustard oil etc., were added to study the growth of the fungus (Kaw Bing CHUA, et al Malaysian J Pathol (2005) 27(2): 99). After solidification, agar plates were streaked with M. furfur innoculum adjusted to appropriate cfu/ml, aseptically. Positive control with 2% olive oil and negative control without fatty substance were also maintained.
as §1, with “lipophilic,” for “lipophilic”, “conditions.” for “conditions (Indian Journal of Medical Microbiology, (2004) 22 (3):179-181).”, “A lipid” for “Lipid”, “effect <C-11 fatty acid or their esters” for “effect”
Briefly, Sabouraud Dextrose containing low-melt agar was melted and cooled to 38° C. Fatty acids/esters constituents, e.g., caprylic acid, capric acid and Monocaprylate of propylene glycol, were added in 2% concentration to study the growth of the fungus. After solidification, agar plates were streaked with M. furfur innoculum adjusted to appropriate cfu/ml, aseptically. Positive control with 2% olive oil and negative control without fatty substance were also maintained.
A lipid assimilation in vitro assay was designed to investigate lipid effect >C-10 fatty acid or their esters on growth of M. furfur (MTCC 1374). Sabouraud Dextrose containing low-melt agar was melted and cooled to 38° C. Fatty acids/esters constituents, e.g. fatty acids or esters, such as lauric acid, palmitic acid, myristic acid, oleic acid, linoleic acid, isopropyl myristate, ethyl oleate, mustard oils, coconut oil were added at different concentration to study the growth of the fungus. Positive control with 2% olive oil and negative control without fatty substance were also maintained. After solidification, agar plates were streaked with M. furfur innoculum adjusted to appropriate cfu/ml, aseptically.

[2] = Table 6, compositions of Table 5
[3] = piroctone olamine oil compositions, incubated 6 days
[4] = Example 6B, different concentration (olive oil 2%)

CC(=O)N1CCN(c2ccc(OCC3COC(Cn4ccnc4)(c4ccc(Cl)cc4Cl)O3)cc2)CC1 (stereo not drawn) [Keto in DMSO, Ketoconazole] was tested, and the “Growth of fungus at concentration 0.0625 μg/ml (MIC determination)” value ([1]; 0.0625 μg/ml, ketoconazole oil compositions, incubated 6 days) was “+”, the “Growth of fungus at concentration 0.125 μg/ml (MIC determination)” value ([1]; 0.125 μg/ml, ketoconazole oil compositions, incubated 6 days) was “+” and the “Growth of fungus at concentration 0.25 μg/ml (MIC determination)” value ([1]; 0.25 μg/ml, ketoconazole oil compositions, incubated 6 days) was “−”. For the same compound, the “Growth of fungus at concentration 0.5 μg/ml (MIC determination)” value ([1]; 0.5 μg/ml, ketoconazole oil compositions, incubated 6 days) was “−”, the “Growth of fungus at concentration 1 μg/ml (MIC determination)” value ([1]; 1 μg/ml, ketoconazole oil compositions, incubated 6 days) was “−” and the “Growth of fungus at concentration 2 μg/ml (MIC determination)” value ([1]; 2 μg/ml, ketoconazole oil compositions, incubated 6 days) was “−”.

For Cc1cc(CC(C)CC(C)(C)C)n(O)c(=O)c1.NCCO (stereo not drawn) [PO in DMSO, Piroctone olamine], the “Growth of fungus at concentration 8 μg/ml (MIC determination)” value [1, 2] was “+”, the “Growth of fungus at concentration 8 μg/ml (MIC determination)” value [1, 3] was “+” and the “Growth of fungus at concentration 16 μg/ml (MIC determination)” value [1, 2] was “+”. For the same compound, the “Growth of fungus at concentration 16 μg/ml (MIC determination)” value [1, 3] was “+”, the “Growth of fungus at concentration 32 μg/ml (MIC determination)” value [1, 2] was “−” and the “Growth of fungus at concentration 32 μg/ml (MIC determination)” value [1, 3] was “−”. The “Growth of fungus at concentration 64 μg/ml (MIC determination)” value [1, 2] was “−”, the “Growth of fungus at concentration 64 μg/ml (MIC determination)” value [1, 3] was “−” and the “Growth of fungus at concentration 4 μg/ml (MIC determination)” value (M. obtusa; 4 μg/ml) was “+”. The “Growth of fungus at concentration 8 μg/ml (MIC determination)” value (M. obtusa; 8 μg/ml) was “+”, the “Growth of fungus at concentration 16 μg/ml (MIC determination)” value (M. obtusa; 16 μg/ml) was “+” and the “Growth of fungus at concentration 32 μg/ml (MIC determination)” value (M. obtusa; 32 μg/ml) was “−”. The “Growth of fungus at concentration 64 μg/ml (MIC determination)” value (M. obtusa; 64 μg/ml) was “−”.

For CCCCCCCCCC(=O)O [capric acid], the “Growth of M. furfur with the substance as nutrient in culture media” value (“Growth of M. furfur with the substance” for short) (M. furfur (MTCC 1374); Example 3) was “no growth” and the “Growth of M. furfur with the substance” value (M. furfur (MTCC 1374); Example 6A, 2% concentration) was “no growth”.

CCCCCCCC(=O)O [caprylic acid] was tested, and the “Growth of M. furfur with the substance” value (M. furfur (MTCC 1374); Example 3) was “no growth” and the “Growth of M. furfur with the substance” value (M. furfur (MTCC 1374); Example 6A, 2% concentration) was “no growth”.

In the case of CCCCCCCC/C=C\CCCCCCCC(=O)OCC [ethyl oleate], the “Growth of M. furfur with the substance” value (M. furfur (MTCC 1374); Example 3) is reported as “confluent growth” and the “Growth of M. furfur with the substance” value (M. furfur (MTCC 1374); [4]) is reported as “confluent growth”.

CCCCCCCCCCCCCC(=O)OC(C)C [isopropyl myristate] was tested, and the “Growth of M. furfur with the substance” value (M. furfur (MTCC 1374); Example 3) was “confluent growth” and the “Growth of M. furfur with the substance” value (M. furfur (MTCC 1374); [4]) was “confluent growth”.

CCCCCCCCCCCC(=O)O [lauric acid] was tested, and the “Growth of M. furfur with the substance” value (M. furfur (MTCC 1374); Example 3) was “confluent growth” and the “Growth of M. furfur with the substance” value (M. furfur (MTCC 1374); [4]) was “confluent growth”.

With CCCCC/C=C\C/C=C\CCCCCCCC(=O)O [linoleic acid] the “Growth of M. furfur with the substance” value (M. furfur (MTCC 1374); Example 3) was “confluent growth” and the “Growth of M. furfur with the substance” value (M. furfur (MTCC 1374); [4]) was “confluent growth”.

For CCCCCCCCCCCCCC(=O)O [myristic acid], the “Growth of M. furfur with the substance” value (M. furfur (MTCC 1374); [4]) was “confluent growth”.

In the case of CCCCCCCC/C=C\CCCCCCCC(=O)O [oleic acid], the “Growth of M. furfur with the substance” value (M. furfur (MTCC 1374); Example 3) is reported as “confluent growth” and the “Growth of M. furfur with the substance” value (M. furfur (MTCC 1374); [4]) is reported as “confluent growth”.

With CCCCCCCCCCCCCCCC(=O)O [palmitic acid] the “Growth of M. furfur with the substance” value (M. furfur (MTCC 1374); Example 3) was “confluent growth” and the “Growth of M. furfur with the substance” value (M. furfur (MTCC 1374); [4]) was “confluent growth”.
